Results published in patent publication US20250145592A1 (NICO Therapeutics, Inc., priority 2022, published 2025).
Where two headings read alike, the source gives them in different places.

Test system: IL-1β secretion in THP-1 cells (NLRP3)
Assay: IL-1β secretion assay in PMA-differentiated THP-1 cells stimulated with LPS and nigericin (ELISA readout)
Type: cell-based
Conditions: IL-1β ELISA
Experimental: Compounds as provided herein were tested in the following assay. Cell culture medium employed contained RPMI 1640 medium (89%), FBS (10%), Pen/Strep (1%), and 2-mercaptoethanol (0.05 mM). Freezing medium was made up of 90% FBS and 10% DMSO. THP-1 cells were removed from the liquid nitrogen and placed into a 37° C. water bath to thaw, until signs of ice dissipated. The cells were then added to 9 mL of warm cell culture medium and centrifuged for 5 minutes at 1000 rpm. The supernatant was discarded, and the cells were resuspended in new cell culture medium. THP-1 cells were then split and cultured in the cell culture medium, being passaged every 2-3 days with the cell density will be maintained between 5×10^5 and 1.5×10^6 viable cells/mL.
To freeze, cells were resuspended with fresh freezing medium, adjusting the cell density to 5×10^6 cells/mL. The cell suspension was partitioned into 1 mL aliquots per vial, and the vials were transferred to a −80° C. freezer. After one day at −80° C., the cell vials were transferred to liquid nitrogen freezer for storage.
PMA was dissolved in DMSO to make a stock solution at 5 mg/ml and stored in 10 μl aliquots at −20° C. for single use. PMA is added to normal growth medium. LPS was diluted with 1 mL of water solution to provide a 1 mg/mL stock solution and stored in 15 μl aliquots at −20° C. for single use. Nigericin is diluted in ice cold 100% ethanol to 5 mg/ml (6.7 mM) and stored in 75 μL aliquots at −20° C. for single use. Serum-free media contains RPMI 1640 medium (99%), Pen/Strep (1%), and 2-mercaptoethanol (0.05 mM). The two control conditions used to qualify and normalize test compound dose-response curves were as follows: High Control=25 ng/mL LPS, […], 0.5% DMSO, Low Control=25 ng/mL, LPS, 0.5% DMSO.
THP-1 cells were diluted to provide a suspension at a concentration of 1.0×10^6 cells/mL with the total volume of suspension required to enable the desired number of assay plates. The growth media was supplemented with PMA (5 ng/mL final concentration) and the cells were incubated at 37° C. under a humidified atmosphere of 5% CO2 for 40 h.
All media was carefully aspirated from each culture flask. The cells were washed carefully with 1×DPBS. The cells were then briefly digested with trypsin LE for 5 minutes at 23° C. and immediately resuspended in cell growth media. After resuspension, the cells were centrifuged at 1000 rpm for 3 minutes and the supernatant was discarded. The cells were resuspended in DPBS and once again centrifuged at 1000 rpm for 5 minutes. The supernatant was discarded and the cell pellet was resuspended in serum-free media supplemented with LPS (25 ng/mL final concentration) to enable the distribution of 30K THP-1 cells within 45 μL of media into each well of 384-well PDL-coated plates. The 384-well plates were then incubated at 37° C. under a humidified atmosphere of 5% CO2 for 2 h. Following this period, test compounds were dispensed by Tecan across the desired concentration range with all wells normalized to a final 0.5% DMSO concentration. The plates were then then incubated at 37° C. under a humidified atmosphere of 5% CO2 for 1 h. Following this period, 5 μL of the 5 mg/mL nigericin stock solution was added to each of the appropriate wells and plates were centrifuged at 1000 rpm for 30 seconds. The plates were the immediately reintroduced to the incubator at 37° C. under a humidified atmosphere of 5% CO2 for 2 h. After this time, 35 μL/well of supernatant was collected and transferred into v-bottom plate and centrifuged at 1000 rpm for 1 minute. These supernatant aliquots were analyzed using an IL-Iβ detection kit as described below. If needed, the test samples could be snap frozen and stored at −80° C. until analyzed.
To prepare each ELISA plate, capture antibody (mAb Mt175) was diluted with PBS to a final concentration of […] and then 20 µL of this solution was added to each well of the ELISA plate.
Each plate was allowed to incubate overnight at 4° C. […]

[1] = Homo sapiens, THP-1, Table 3, LPS 25 ng/mL + nigericin, read-out: Activity (IC50 class)
[2] = Homo sapiens, THP-1, Table 4, LPS 25 ng/mL + nigericin, read-out: Activity (IC50)
[3] = Table 4, LPS 25 ng/mL + nigericin, read-out: Activity (IC50)
[4] = Table 3, LPS 25 ng/mL + nigericin, read-out: Activity (IC50 class)

SMILES	IC50 [1] [nM]	IC50 [2] [nM]	IC50 [3] [nM]	IC50 [4] [nM]
CC[C@H]1C[C@@H]1Oc1nn(CC(=O)Nc2ncc(F)cn2)c(=O)c2ccc(Br)cc12 (relative stereo) [Example 51, 2-[6-bromo-4-[trans-2-ethylcyclopropyl]oxy-1-oxophthalazin-2-yl]-N-(5-fluoropyrimidin-2-yl)acetamide]	< 1000	790		
C[C@@H]1CC1Oc1nn(CC(=O)Nc2ncc(F)cn2)c(=O)c2ccc(Br)cc12 (single isomer, unassigned) [Example 2, 2-[6-bromo-4-[2-trans-methylcyclopropyl]oxy-1-oxophthalazin-2-yl]-N-(5-fluoropyrimidin-2-yl)acetamide]	< 1000		202	
C[C@@H]1CC1Oc1nn(CC(=O)Nc2ncc(F)cn2)c(=O)c2ccc(Br)cc12 (single isomer, unassigned) [Example 3, 2-[6-bromo-4-[2-trans-methylcyclopropyl]oxy-1-oxophthalazin-2-yl]-N-(5-fluoropyrimidin-2-yl)acetamide]			35	< 1000
O=C(Cn1nc(OC2CC3(C2)CC3(F)F)c2cc(Br)ccc2c1=O)Nc1ncc(F)cn1 (single isomer, unassigned) [Example 5, 2-[6-bromo-4-(2,2-difluorospiro[2.3]hexan-5-yl)oxy-1-oxophthalazin-2-yl]-N-(5-fluoropyrimidin-2-yl)acetamide]	< 1000		21	
O=C(Cn1nc(OC2CC3(C2)CC3(F)F)c2cc(Br)ccc2c1=O)Nc1ncc(F)cn1 (single isomer, unassigned) [Example 6, 2-[6-bromo-4-(2,2-difluorospiro[2.3]hexan-5-yl)oxy-1-oxophthalazin-2-yl]-N-(5-fluoropyrimidin-2-yl)acetamide]			308	< 1000
C[C@@H]1CC1Oc1nn(CC(=O)N[C@H]2C[C@@](C)(O)C2)c(=O)c2ccc(Br)cc12 (single isomer, unassigned) [Example 7, 2-[6-bromo-4-[trans-2-methylcyclopropyl]oxy-1-oxophthalazin-2-yl]-N-(cis-3-hydroxy-3-methylcyclobutyl)acetamide]	< 1000		84	
C[C@@H]1CC1Oc1nn(CC(=O)N[C@H]2C[C@@](C)(O)C2)c(=O)c2ccc(Br)cc12 (single isomer, unassigned) [Example 8, 2-[6-bromo-4-[trans-2-methylcyclopropyl]oxy-1-oxophthalazin-2-yl]-N-(cis-3-hydroxy-3-methylcyclobutyl)acetamide]			728	< 1000
Cc1cnc(NC(=O)Cn2nc(OC3C[C@H]3C)c3cc(Br)ccc3c2=O)nc1 (single isomer, unassigned) [Example 9, 2-[6-bromo-4-[trans-2-methylcyclopropyl]oxy-1-oxophthalazin-2-yl]-N-(5-methylpyrimidin-2-yl)acetamide]	< 1000		554	
Cc1cnc(NC(=O)Cn2nc(OC3C[C@H]3C)c3cc(Br)ccc3c2=O)nc1 (single isomer, unassigned) [Example 10, 2-[6-bromo-4-[trans-2-methylcyclopropyl]oxy-1-oxophthalazin-2-yl]-N-(5-methylpyrimidin-2-yl)acetamide]			141	< 1000
O=C(Cn1nc(OC2CC3(C2)CC3(F)F)c2cc(C3(F)CC3)ccc2c1=O)Nc1ncc(F)cn1 (single isomer, unassigned) [Example 13, 2-[4-(2,2-difluorospiro[2.3]hexan-5-yl)oxy-6-(1-fluorocyclopropyl)-1-oxophthalazin-2-yl]-N-(5-fluoropyrimidin-2-yl)acetamide]	< 1000		34	
O=C(Cn1nc(OC2CC3(C2)CC3(F)F)c2cc(C3(F)CC3)ccc2c1=O)Nc1ncc(F)cn1 (single isomer, unassigned) [Example 14, 2-[4-(2,2-difluorospiro[2.3]hexan-5-yl)oxy-6-(1-fluorocyclopropyl)-1-oxophthalazin-2-yl]-N-(5-fluoropyrimidin-2-yl)acetamide]			314	< 1000
O=C(Cn1nc(OC2CC2(F)F)c2cc(Br)ccc2c1=O)Nc1ncc(F)cn1 (single isomer, unassigned) [Example 17, 2-[6-bromo-4-[2,2-difluorocyclopropyl]oxy-1-oxophthalazin-2-yl]-N-(5-fluoropyrimidin-2-yl)acetamide]	< 1000		70	
O=C(Cn1nc(OC2CC2(F)F)c2cc(Br)ccc2c1=O)Nc1ncc(F)cn1 (single isomer, unassigned) [Example 18, 2-[6-bromo-4-[2,2-difluorocyclopropyl]oxy-1-oxophthalazin-2-yl]-N-(5-fluoropyrimidin-2-yl)acetamide]			1510	1000 to 10000
C[C@]1(O)C[C@@H](NC(=O)Cn2nc(OC3CC4(C3)CC4(F)F)c3cc(Br)ccc3c2=O)C1 (single isomer, unassigned) [Example 19, 2-[6-bromo-4-(2,2-difluorospiro[2.3]hexan-5-yl)oxy-1-oxophthalazin-2-yl]-N-(cis-3-hydroxy-3-methylcyclobutyl)acetamide]	< 1000		179	
C[C@]1(O)C[C@@H](NC(=O)Cn2nc(OC3CC4(C3)CC4(F)F)c3cc(Br)ccc3c2=O)C1 (single isomer, unassigned) [Example 20, 2-[6-bromo-4-(2,2-difluorospiro[2.3]hexan-5-yl)oxy-1-oxophthalazin-2-yl]-N-(cis-3-hydroxy-3-methylcyclobutyl)acetamide]			3400	1000 to 10000
Cc1cnc(NC(=O)Cn2nc(OC3CC4(C3)CC4(F)F)c3cc(Br)ccc3c2=O)nc1 (single isomer, unassigned) [Example 21, 2-[6-bromo-4-(2,2-difluorospiro[2.3]hexan-5-yl)oxy-1-oxophthalazin-2-yl]-N-(5-methylpyrimidin-2-yl)acetamide]	< 1000		31	
Cc1cnc(NC(=O)Cn2nc(OC3CC4(C3)CC4(F)F)c3cc(Br)ccc3c2=O)nc1 (single isomer, unassigned) [Example 22, 2-[6-bromo-4-(2,2-difluorospiro[2.3]hexan-5-yl)oxy-1-oxophthalazin-2-yl]-N-(5-methylpyrimidin-2-yl)acetamide]			815	< 1000
O=C(Cn1nc(OC2CC3(C2)CC3(F)F)c2cc(Br)ccc2c1=O)Nc1nc2ccccn2n1 (single isomer, unassigned) [Example 25, 2-[6-bromo-4-(2,2-difluorospiro[2.3]hexan-5-yl)oxy-1-oxophthalazin-2-yl]-N-([1,2,4]triazolo[1,5-a]pyridin-2-yl)acetamide]	< 1000		33	
O=C(Cn1nc(OC2CC3(C2)CC3(F)F)c2cc(Br)ccc2c1=O)Nc1nc2ccccn2n1 (single isomer, unassigned) [Example 26, 2-[6-bromo-4-(2,2-difluorospiro[2.3]hexan-5-yl)oxy-1-oxophthalazin-2-yl]-N-([1,2,4]triazolo[1,5-a]pyridin-2-yl)acetamide]			596	< 1000
CC[C@@H]1CC1Oc1nn(CC(=O)Nc2ncc(F)cn2)c(=O)c2ccc(Br)cc12 (single isomer, unassigned) [Example 35, 2-[6-bromo-4-[cis-2-ethylcyclopropyl]oxy-1-oxophthalazin-2-yl]-N-(5-fluoropyrimidin-2-yl)acetamide]	< 1000	368		
